Columns and labels:
Assay type in all cases: in vivo
[1] = test system: barnyardgrass; assay: Test Example 1: herbicidal effects in preemergence treatment under submerged conditions; details: dose 2.52 g/a
How it was run: (§1)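 Weed seeds and 2.5-leaf rice seedlings shared each flooded cup of alluvial soil. Dosing, expressed as g per are, was by pouring water-diluted emulsifiable concentrate onto the surface on sowing day. Mortality was graded 0 to 5 after three weeks' growth.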

[2] = test system: bulrush; assay: as above; details: dose 2.52 g/a
How it was run: as §1

[3] = test system: ducksalad; assay: as above; details: dose 2.52 g/a
How it was run: as §1

[4] = test system: transplanted rice; assay: Test Example 1: preemergence treatment under submerged conditions, effect on crop; details: dose 2.52 g/a
How it was run: as §1

[5] = test system: barnyardgrass; assay: Test Example 2: herbicidal effects during the vegetation period under submerged conditions; details: treatment during the vegetation period under submerged conditions; dose 2.52 g/a
How it was run: (§2)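 Barnyardgrass, bulrush and ducksalad were co-sown in alluvial soil flooded to 4 cm and grown in a greenhouse at 25 to 30° C. At the 1- or 2-leaf stage, water-diluted emulsifiable concentrates went onto the water surface at set doses (g/a). Herbicidal effect was scored three weeks later on a graded scale.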

[6] = test system: bulrush; assay: as above; details: treatment during the vegetation period under submerged conditions; dose 2.52 g/a
How it was run: as §2

[7] = test system: ducksalad; assay: as above; details: treatment during the vegetation period under submerged conditions; dose 2.52 g/a
How it was run: as §2

[8] = test system: Italian ryegrass; assay: Test Example 3: herbicidal effects in soil treatment; details: dose 3.2 g/a
How it was run: (§3)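 Seeds were sown in sterilized diluvial soil and covered with about 1.5 cm of soil. Compounds, formulated as emulsifiable concentrates and diluted with water, were sprayed evenly over the soil surface at set doses in g/a. Herbicidal effect was scored on a rating scale three weeks later.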

[9] = test system: barnyardgrass; assay: as above; details: dose 3.2 g/a
How it was run: as §3

[10] = test system: common chickweed; assay: as above; details: dose 3.2 g/a
How it was run: as §3

[11] = test system: common lambsquater; assay: as above; details: dose 3.2 g/a
How it was run: as §3

[12] = test system: common ragweed; assay: as above; details: dose 3.2 g/a
How it was run: as §3

[13] = test system: giant foxtail; assay: as above; details: dose 3.2 g/a
How it was run: as §3

[14] = test system: large crabgrass; assay: as above; details: dose 3.2 g/a
How it was run: as §3

[15] = test system: posumbu knotweed; assay: as above; details: dose 3.2 g/a
How it was run: as §3

[16] = test system: redroot pigweed; assay: as above; details: dose 3.2 g/a
How it was run: as §3

[17] = test system: velvetleaf; assay: as above; details: dose 3.2 g/a
How it was run: as §3

[18] = test system: water foxtail; assay: as above; details: dose 3.2 g/a
How it was run: as §3

[19] = test system: Italian ryegrass; assay: Test Example 4: herbicidal effect in foliage treatment; details: dose 3.2 g/a, three weeks after application
How it was run: (§4)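 14-day greenhouse-grown plants (25–30° C) sprayed on foliage with diluted EC; dose as g/a; effect graded after 3 weeks.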

[20] = test system: barnyardgrass; assay: as above; details: dose 3.2 g/a, three weeks after application
How it was run: as §4

[21] = test system: beadstraw; assay: as above; details: dose 3.2 g/a, three weeks after application
How it was run: as §4

[22] = test system: common chickweed; assay: as above; details: dose 3.2 g/a, three weeks after application
How it was run: as §4

[23] = test system: common lambsquater; assay: as above; details: dose 3.2 g/a, three weeks after application
How it was run: as §4

[24] = test system: common ragweed; assay: as above; details: dose 3.2 g/a, three weeks after application
How it was run: as §4

[25] = test system: giant foxtail; assay: as above; details: dose 3.2 g/a, three weeks after application
How it was run: as §4

[26] = test system: large crabgrass; assay: as above; details: dose 3.2 g/a, three weeks after application
How it was run: as §4

[27] = test system: posumbu knotweed; assay: as above; details: dose 3.2 g/a, three weeks after application
How it was run: as §4

[28] = test system: redroot pigweed; assay: as above; details: dose 3.2 g/a, three weeks after application
How it was run: as §4

[29] = test system: velvetleaf; assay: as above; details: dose 3.2 g/a, three weeks after application
How it was run: as §4

[30] = test system: water foxtail; assay: as above; details: dose 3.2 g/a, three weeks after application
How it was run: as §4

SMILES: CCOC(=O)N(c1ccccc1CN1COC(C)(C)C(Br)C1=O)S(=O)(=O)C(F)(F)F (centres unmarked) [II-39, 5-bromo-6,6-dimethyl-3-[2-(N-ethoxylcarbonyl-N-trifluoromethanesulfonyl)aminobenzyl]-1,3-oxazinan-4-one]
- A: barnyardgrass, herbicidal effect (evaluation scale 0-5) [1]: 5 (mortality of 90% or above (nearly complete death))
- B: bulrush, herbicidal effect (evaluation scale 0-5) [2]: 5 (mortality of 90% or above (nearly complete death))
- C: ducksalad, herbicidal effect (evaluation scale 0-5) [3]: 5 (mortality of 90% or above (nearly complete death))
- a: transplanted rice, effect on crop (evaluation scale 0-5) [4]: 0 (mortality of less than 5% (almost ineffective))
- A: barnyardgrass, herbicidal effect (evaluation scale 0-5) [5]: 5 (mortality of 90% or above (nearly complete death))
- B: bulrush, herbicidal effect (evaluation scale 0-5) [6]: 5 (mortality of 90% or above (nearly complete death))
- C: ducksalad, herbicidal effect (evaluation scale 0-5) [7]: 5 (mortality of 90% or above (nearly complete death))
- H: Italian ryegrass, herbicidal effect (evaluation scale 0-5) [8]: 5 (mortality of 90% or above (nearly complete death))
- A: barnyardgrass, herbicidal effect (evaluation scale 0-5) [9]: 5 (mortality of 90% or above (nearly complete death))
- N: common chickweed, herbicidal effect (evaluation scale 0-5) [10]: 5 (mortality of 90% or above (nearly complete death))
- L: common lambsquater, herbicidal effect (evaluation scale 0-5) [11]: 5 (mortality of 90% or above (nearly complete death))
- J: common ragweed, herbicidal effect (evaluation scale 0-5) [12]: 4 (mortality of at least 70% and less than 90%)
- E: giant foxtail, herbicidal effect (evaluation scale 0-5) [13]: 5 (mortality of 90% or above (nearly complete death))
- D: large crabgrass, herbicidal effect (evaluation scale 0-5) [14]: 5 (mortality of 90% or above (nearly complete death))
- M: posumbu knotweed, herbicidal effect (evaluation scale 0-5) [15]: 5 (mortality of 90% or above (nearly complete death))
- K: redroot pigweed, herbicidal effect (evaluation scale 0-5) [16]: 1 (mortality of at least 5% and less than 20%)
- I: velvetleaf, herbicidal effect (evaluation scale 0-5) [17]: 5 (mortality of 90% or above (nearly complete death))
- G: water foxtail, herbicidal effect (evaluation scale 0-5) [18]: 5 (mortality of 90% or above (nearly complete death))
- H: Italian ryegrass, herbicidal effect [19]: 3 (mortality of at least 40% and less than 70%)
- A: barnyardgrass, herbicidal effect [20]: 5 (mortality of 90% or above (nearly complete death))
- O: beadstraw, herbicidal effect [21]: 4 (mortality of at least 70% and less than 90%)
- N: common chickweed, herbicidal effect [22]: 4 (mortality of at least 70% and less than 90%)
- L: common lambsquater, herbicidal effect [23]: 3 (mortality of at least 40% and less than 70%)
- J: common ragweed, herbicidal effect [24]: 5 (mortality of 90% or above (nearly complete death))
- E: giant foxtail, herbicidal effect [25]: 5 (mortality of 90% or above (nearly complete death))
- D: large crabgrass, herbicidal effect [26]: 4 (mortality of at least 70% and less than 90%)
- M: posumbu knotweed, herbicidal effect [27]: 3 (mortality of at least 40% and less than 70%)
- K: redroot pigweed, herbicidal effect [28]: 4 (mortality of at least 70% and less than 90%)
- I: velvetleaf, herbicidal effect [29]: 5 (mortality of 90% or above (nearly complete death))
- G: water foxtail, herbicidal effect [30]: 5 (mortality of 90% or above (nearly complete death))

SMILES: CCC(=O)N(c1ccccc1CN1COC(C)(C(F)(F)F)CC1=O)S(=O)(=O)C(F)(F)F (centres unmarked) [II-47]
- A: barnyardgrass, herbicidal effect (evaluation scale 0-5) [1]: 5 (mortality of 90% or above (nearly complete death))
- B: bulrush, herbicidal effect (evaluation scale 0-5) [2]: 5 (mortality of 90% or above (nearly complete death))
- C: ducksalad, herbicidal effect (evaluation scale 0-5) [3]: 5 (mortality of 90% or above (nearly complete death))
- a: transplanted rice, effect on crop (evaluation scale 0-5) [4]: 0 (mortality of less than 5% (almost ineffective))
- A: barnyardgrass, herbicidal effect (evaluation scale 0-5) [5]: 4 (mortality of at least 70% and less than 90%)
- B: bulrush, herbicidal effect (evaluation scale 0-5) [6]: 5 (mortality of 90% or above (nearly complete death))
- C: ducksalad, herbicidal effect (evaluation scale 0-5) [7]: 5 (mortality of 90% or above (nearly complete death))
- H: Italian ryegrass, herbicidal effect (evaluation scale 0-5) [8]: 3 (mortality of at least 40% and less than 70%)
- A: barnyardgrass, herbicidal effect (evaluation scale 0-5) [9]: 5 (mortality of 90% or above (nearly complete death))
- L: common lambsquater, herbicidal effect (evaluation scale 0-5) [11]: 3 (mortality of at least 40% and less than 70%)
- J: common ragweed, herbicidal effect (evaluation scale 0-5) [12]: 4 (mortality of at least 70% and less than 90%)
- E: giant foxtail, herbicidal effect (evaluation scale 0-5) [13]: 4 (mortality of at least 70% and less than 90%)
- D: large crabgrass, herbicidal effect (evaluation scale 0-5) [14]: 5 (mortality of 90% or above (nearly complete death))
- M: posumbu knotweed, herbicidal effect (evaluation scale 0-5) [15]: 3 (mortality of at least 40% and less than 70%)
- K: redroot pigweed, herbicidal effect (evaluation scale 0-5) [16]: 0 (mortality of less than 5% (almost ineffective))
- I: velvetleaf, herbicidal effect (evaluation scale 0-5) [17]: 4 (mortality of at least 70% and less than 90%)
- G: water foxtail, herbicidal effect (evaluation scale 0-5) [18]: 5 (mortality of 90% or above (nearly complete death))
- H: Italian ryegrass, herbicidal effect [19]: 0 (mortality of less than 5% (almost ineffective))
- A: barnyardgrass, herbicidal effect [20]: 4 (mortality of at least 70% and less than 90%)
- O: beadstraw, herbicidal effect [21]: 4 (mortality of at least 70% and less than 90%)
- N: common chickweed, herbicidal effect [22]: 3 (mortality of at least 40% and less than 70%)
- L: common lambsquater, herbicidal effect [23]: 0 (mortality of less than 5% (almost ineffective))
- J: common ragweed, herbicidal effect [24]: 2 (mortality of at least 20% and less than 40%)
- E: giant foxtail, herbicidal effect [25]: 2 (mortality of at least 20% and less than 40%)
- D: large crabgrass, herbicidal effect [26]: 1 (mortality of at least 5% and less than 20%)
- M: posumbu knotweed, herbicidal effect [27]: 2 (mortality of at least 20% and less than 40%)
- K: redroot pigweed, herbicidal effect [28]: 0 (mortality of less than 5% (almost ineffective))
- I: velvetleaf, herbicidal effect [29]: 4 (mortality of at least 70% and less than 90%)
- G: water foxtail, herbicidal effect [30]: 2 (mortality of at least 20% and less than 40%)

— patent publication US20120029187A1, “HALOALKYLSULFONANILIDE DERIVATIVE” (Nissan Chemical Industries, Ltd., priority 2009, published 2012)
